The values that follow come from US10085971B2, “Pharmaceutical solution of asenapine for sublingual or buccal use” (Navinta III Inc, priority 2016, dated 2018).

For data set [1] the following is noted: oral dosing in human patients; cited from earlier work.
Data set [2] can be described thus: Solubility in ethanol water mixture. The class given is physicochemical. The note with it: both crystal forms.

Each structure is given as a SMILES string. Where a name gives a salt, the structure may show the parent alone.

For `CN1C[C@H]2c3ccccc3Oc3ccc(Cl)cc3[C@@H]2C1` (relative stereo) [Asenapine, trans-5-chloro-2-methyl-2,3,3a, 12b-tetrahydro-1 H-dibenz[2,3:6,7]oxepino-[4,5-c]pyrrole], in data set [1], the “Side effects of oral dosing” value is “serious cardiotoxic side effects including postural hypotension”.
For `CN1CC2c3ccccc3Oc3ccc(Cl)cc3C2C1` (centres unmarked) [Asenapine maleate], the Solubility result in data set [2] was “good solubility”.
